molecular target: T1, acyl-CoA:cholesterol acyltransferase (ACAT) (Oryctolagus cuniculus, UniProt G1SFD9); assay: in vitro ACAT inhibition: radio-labeled cholesterol oleate formation from radio-labeled oleic acid in rabbit intestinal microsomes; format: biochemical; conditions: read-out: IC50 (concentration of test compound required to inhibit cholesteryl oleate formation to 50% of control)
T1 construct: tissue preparation containing rabbit intestinal microsomes; from tissue; host or cells: rabbit intestinal microsomes
T1 sequence (G1SFD9 1-524): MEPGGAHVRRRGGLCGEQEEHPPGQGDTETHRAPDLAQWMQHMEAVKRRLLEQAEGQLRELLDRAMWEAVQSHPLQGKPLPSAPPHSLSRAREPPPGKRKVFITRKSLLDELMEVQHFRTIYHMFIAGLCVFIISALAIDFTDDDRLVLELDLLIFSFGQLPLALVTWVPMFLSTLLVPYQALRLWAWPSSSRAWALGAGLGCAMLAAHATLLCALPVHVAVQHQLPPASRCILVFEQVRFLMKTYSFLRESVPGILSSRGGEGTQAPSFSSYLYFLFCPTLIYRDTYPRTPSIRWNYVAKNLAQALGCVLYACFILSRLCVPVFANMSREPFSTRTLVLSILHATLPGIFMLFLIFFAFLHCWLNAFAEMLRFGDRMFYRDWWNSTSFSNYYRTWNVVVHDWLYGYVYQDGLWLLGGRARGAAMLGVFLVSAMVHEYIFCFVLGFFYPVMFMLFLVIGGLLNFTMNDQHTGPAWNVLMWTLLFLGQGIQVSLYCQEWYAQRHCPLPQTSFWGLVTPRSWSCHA
Description: The ability of representative compounds of the present invention to inhibit ACAT was measured using an in vitro test more fully described in Field, F. J. and Salome, R. G., Biochimica et Biophysica Acta, volume 712, pages 557-570 (1982). The test assesses the ability of a test compound to inhibit the acylation of cholesterol by oleic acid by measuring the amount of radio-labeled cholesterol oleate formed from radio-labeled oleic acid in a tissue preparation containing rabbit intestinal microsomes. The data in Table I is expressed as IC50 values, i.e., the concentration of test compound required to inhibit cholesteryl oleate formation to 50% of control.

IC50 [nM]	Structure (SMILES)
30	CC(C)c1cccc(C(C)C)c1NC(=O)NOC(c1ccccc1)c1ccccc1 [Example 1, N-[2,6-Bis(1-methylethyl)phenyl]-N'-(diphenylmethoxy)-urea]
53	CC(C)c1cccc(C(C)C)c1NC(=O)NOC(c1ccccc1)(c1ccccc1)c1ccccc1 [Example 2, N-[2,6-Bis(1-methylethyl)phenyl]-N'-(triphenylmethoxy)urea]
92	CC(C)c1cccc(C(C)C)c1NC(=O)NOCc1cccc2ccccc12 [Example 3, N-[2,6-Bis(1-methylethyl)phenyl]-N'-(1-naphthalenylmethoxy)-urea]

— patent US5155127A, “N-(substituted aryl)-N'-(substituted alkoxy)-ureas and thioureas as antihypercholesterolemic and antiatherosclerotic agents” (priority 1990, dated 1992)
